This passage reports inhibition results from patent publication EP4467141A1, “PYRAZOLO-QUINOLINES AS SELECTIVE INHIBITORS OF GENOTOXIC STRESS-INDUCED IKK/NF- KB PATHWAYS FOR CANCER THERAPY” (Max-Delbrück-Centrum für Molekulare Medizin in der …, priority 2023, dated 2024).

SMILES strings stand for the structures.

Holding throughout (test): Kinase panel study
Common to all, as to assay type: biochemical
Conditions in all cases: read-out: Percentage of inhibition; for inhibition at 1 µM: 1000nM; for inhibition at 10 µM: 10000nM

Experiment [1] addresses T1, PIK3C2B (PI3K-C2 beta) (Homo sapiens, UniProt O00750).
T1 construct: purchased Thermo Fisher Scientific
The gist of the method:
(§1)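 A commercial kinase profiling service ran the assays according to its ZLyte or Adapta standard protocols. Compound was present at 10 µM or 1 µM, and kinase activity loss was expressed as percent inhibition.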

Experiment [2] addresses T2, HCK (Homo sapiens, UniProt P08631).
T2 construct: purchased Thermo Fisher Scientific
The essentials: as §1

Experiment [3] concerns the target T3, AMPK A1/B1/G1 (Homo sapiens, UniProt Q13131).
T3 construct: purchased Thermo Fisher Scientific
The gist of the method:
as §1

Experiment [4] has as its target T4, MAPKAPK5 (PRAK) (Homo sapiens, UniProt Q8IW41).
T4 construct: purchased Thermo Fisher Scientific
T4 sequence (Q8IW41 1-473): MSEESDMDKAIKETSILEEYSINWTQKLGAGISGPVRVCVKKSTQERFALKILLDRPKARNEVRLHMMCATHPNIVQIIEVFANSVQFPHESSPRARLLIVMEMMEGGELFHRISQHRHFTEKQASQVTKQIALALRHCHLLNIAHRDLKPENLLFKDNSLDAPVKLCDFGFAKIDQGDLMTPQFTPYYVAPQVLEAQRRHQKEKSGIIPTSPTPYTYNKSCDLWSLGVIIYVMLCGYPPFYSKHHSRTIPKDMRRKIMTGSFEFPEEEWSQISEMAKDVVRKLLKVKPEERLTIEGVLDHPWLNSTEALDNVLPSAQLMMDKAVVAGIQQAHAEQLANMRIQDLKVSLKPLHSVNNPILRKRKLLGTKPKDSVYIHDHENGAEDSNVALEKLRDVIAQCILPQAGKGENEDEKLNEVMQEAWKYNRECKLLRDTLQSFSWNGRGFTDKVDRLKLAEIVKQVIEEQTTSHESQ
The essentials: as §1

Experiment [5] has as its target T5, FGFR1 (Homo sapiens, UniProt P11362).
T5 construct: purchased Thermo Fisher Scientific
The essentials: as §1

The target of experiment [6] is T6, CSNK1A1 (CK1 alpha 1) (Homo sapiens, UniProt P48729).
T6 construct: purchased Thermo Fisher Scientific
T6 sequence (P48729 whole entry): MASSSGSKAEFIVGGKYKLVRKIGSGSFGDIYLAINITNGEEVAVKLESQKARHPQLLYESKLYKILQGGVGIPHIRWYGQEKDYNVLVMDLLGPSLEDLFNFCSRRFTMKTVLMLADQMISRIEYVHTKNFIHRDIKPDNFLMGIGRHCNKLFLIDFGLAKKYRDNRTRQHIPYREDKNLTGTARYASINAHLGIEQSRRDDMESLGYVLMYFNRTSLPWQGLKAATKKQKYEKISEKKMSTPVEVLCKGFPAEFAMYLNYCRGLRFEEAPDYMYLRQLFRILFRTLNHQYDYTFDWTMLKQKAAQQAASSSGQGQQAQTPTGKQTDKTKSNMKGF
The gist of the method:
as §1

Experiment [7] deals with T7, PAK3 (Homo sapiens, UniProt O75914).
T7 construct: purchased Thermo Fisher Scientific
The essentials:
as §1

The target in experiment [8] is T8, LTK (TYK1) (Homo sapiens, UniProt P29376).
T8 construct: purchased Thermo Fisher Scientific
The essentials:
as §1

Experiment [9] deals with T9, MARK4 (Homo sapiens, UniProt Q96L34).
T9 construct: purchased Thermo Fisher Scientific
T9 sequence (Q96L34 1-752): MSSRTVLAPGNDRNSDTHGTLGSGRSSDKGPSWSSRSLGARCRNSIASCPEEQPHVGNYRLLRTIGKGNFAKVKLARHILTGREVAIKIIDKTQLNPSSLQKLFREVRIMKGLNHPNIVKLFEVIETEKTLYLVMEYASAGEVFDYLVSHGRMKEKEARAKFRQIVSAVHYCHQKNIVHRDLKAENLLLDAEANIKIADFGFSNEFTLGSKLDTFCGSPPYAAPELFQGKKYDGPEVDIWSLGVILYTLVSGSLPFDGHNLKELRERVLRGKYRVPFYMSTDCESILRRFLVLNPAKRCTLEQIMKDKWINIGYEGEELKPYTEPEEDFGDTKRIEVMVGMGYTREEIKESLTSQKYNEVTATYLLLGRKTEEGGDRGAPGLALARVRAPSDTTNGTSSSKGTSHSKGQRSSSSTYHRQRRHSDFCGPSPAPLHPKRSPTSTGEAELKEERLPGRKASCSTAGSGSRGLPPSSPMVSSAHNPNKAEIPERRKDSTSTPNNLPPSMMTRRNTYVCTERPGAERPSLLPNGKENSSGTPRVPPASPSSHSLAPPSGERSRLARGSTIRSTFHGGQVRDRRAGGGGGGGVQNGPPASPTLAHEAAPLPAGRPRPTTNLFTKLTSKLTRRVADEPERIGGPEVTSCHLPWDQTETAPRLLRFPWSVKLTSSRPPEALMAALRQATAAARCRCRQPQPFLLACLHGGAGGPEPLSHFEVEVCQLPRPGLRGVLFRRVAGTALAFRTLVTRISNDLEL
The essentials:
as §1

Experiment [10] concerns the target T10, CDK6/cyclin D1 (Homo sapiens, UniProt Q00534).
T10 construct: purchased Thermo Fisher Scientific
The essentials: as §1

Experiment [11] deals with T11, EGFR (ErbB1) G719S (Homo sapiens, UniProt P00533, G719S).
T11 construct: purchased Thermo Fisher Scientific
T11 sequence (P00533 25-1210 G719S): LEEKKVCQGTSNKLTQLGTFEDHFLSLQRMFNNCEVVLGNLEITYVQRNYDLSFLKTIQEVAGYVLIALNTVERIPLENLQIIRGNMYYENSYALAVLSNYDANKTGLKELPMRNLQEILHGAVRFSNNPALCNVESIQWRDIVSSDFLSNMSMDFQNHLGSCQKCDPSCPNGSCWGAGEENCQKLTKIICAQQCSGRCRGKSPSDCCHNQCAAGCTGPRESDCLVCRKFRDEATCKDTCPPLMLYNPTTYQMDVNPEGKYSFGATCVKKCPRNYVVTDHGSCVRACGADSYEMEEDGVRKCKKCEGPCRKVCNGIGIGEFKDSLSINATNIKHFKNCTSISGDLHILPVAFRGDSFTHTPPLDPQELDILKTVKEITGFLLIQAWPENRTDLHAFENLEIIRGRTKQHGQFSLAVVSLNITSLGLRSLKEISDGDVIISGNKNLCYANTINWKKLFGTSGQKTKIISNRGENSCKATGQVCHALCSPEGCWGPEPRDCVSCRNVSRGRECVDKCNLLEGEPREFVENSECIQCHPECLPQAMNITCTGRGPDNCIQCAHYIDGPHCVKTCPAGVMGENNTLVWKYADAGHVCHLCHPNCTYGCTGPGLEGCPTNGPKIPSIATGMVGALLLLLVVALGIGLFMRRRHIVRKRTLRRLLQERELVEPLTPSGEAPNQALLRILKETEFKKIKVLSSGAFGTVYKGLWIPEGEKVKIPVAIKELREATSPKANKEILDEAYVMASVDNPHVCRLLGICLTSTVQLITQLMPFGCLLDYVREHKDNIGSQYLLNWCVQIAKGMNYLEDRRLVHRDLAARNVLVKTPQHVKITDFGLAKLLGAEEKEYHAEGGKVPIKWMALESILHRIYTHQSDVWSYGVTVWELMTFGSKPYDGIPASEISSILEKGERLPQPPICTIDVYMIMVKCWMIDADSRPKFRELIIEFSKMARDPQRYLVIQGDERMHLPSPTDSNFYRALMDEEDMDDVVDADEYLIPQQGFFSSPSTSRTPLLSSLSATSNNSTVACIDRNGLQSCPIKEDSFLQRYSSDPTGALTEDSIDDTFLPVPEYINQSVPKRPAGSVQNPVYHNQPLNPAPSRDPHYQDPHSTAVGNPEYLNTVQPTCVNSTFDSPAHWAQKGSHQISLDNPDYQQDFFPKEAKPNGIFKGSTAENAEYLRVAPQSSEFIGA
The gist of the method:
as §1

T2 sequence (P08631 whole entry): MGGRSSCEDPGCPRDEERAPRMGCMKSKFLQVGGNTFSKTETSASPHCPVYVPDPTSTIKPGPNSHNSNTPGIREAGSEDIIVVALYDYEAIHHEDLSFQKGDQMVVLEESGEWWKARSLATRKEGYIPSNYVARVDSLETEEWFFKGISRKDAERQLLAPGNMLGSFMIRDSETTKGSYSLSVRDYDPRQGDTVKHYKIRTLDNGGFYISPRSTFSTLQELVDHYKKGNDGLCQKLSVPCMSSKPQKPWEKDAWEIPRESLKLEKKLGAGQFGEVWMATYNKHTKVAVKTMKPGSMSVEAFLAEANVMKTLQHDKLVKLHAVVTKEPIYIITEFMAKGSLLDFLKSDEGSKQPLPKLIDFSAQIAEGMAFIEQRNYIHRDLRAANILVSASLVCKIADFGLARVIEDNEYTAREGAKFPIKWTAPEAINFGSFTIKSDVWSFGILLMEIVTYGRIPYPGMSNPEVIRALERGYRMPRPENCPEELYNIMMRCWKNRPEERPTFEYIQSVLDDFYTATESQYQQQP
T10 sequence (Q00534 whole entry): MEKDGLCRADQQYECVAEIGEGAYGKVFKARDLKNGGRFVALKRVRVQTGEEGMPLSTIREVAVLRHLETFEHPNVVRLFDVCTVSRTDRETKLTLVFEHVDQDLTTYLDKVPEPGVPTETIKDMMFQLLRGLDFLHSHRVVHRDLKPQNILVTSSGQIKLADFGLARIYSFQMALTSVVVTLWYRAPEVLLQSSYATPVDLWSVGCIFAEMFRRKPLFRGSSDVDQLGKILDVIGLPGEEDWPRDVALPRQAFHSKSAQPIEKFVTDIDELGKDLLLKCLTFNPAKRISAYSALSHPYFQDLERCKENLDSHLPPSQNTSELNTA
T10 sequence (P24385 whole entry partner): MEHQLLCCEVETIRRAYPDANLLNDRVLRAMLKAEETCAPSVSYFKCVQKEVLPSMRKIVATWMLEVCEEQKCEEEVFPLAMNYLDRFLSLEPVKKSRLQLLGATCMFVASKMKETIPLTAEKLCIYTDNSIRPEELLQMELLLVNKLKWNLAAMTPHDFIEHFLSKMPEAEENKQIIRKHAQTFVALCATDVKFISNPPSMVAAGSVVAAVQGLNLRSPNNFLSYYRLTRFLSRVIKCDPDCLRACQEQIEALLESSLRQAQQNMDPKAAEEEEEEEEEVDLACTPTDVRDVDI
T3 sequence (Q13131 whole entry): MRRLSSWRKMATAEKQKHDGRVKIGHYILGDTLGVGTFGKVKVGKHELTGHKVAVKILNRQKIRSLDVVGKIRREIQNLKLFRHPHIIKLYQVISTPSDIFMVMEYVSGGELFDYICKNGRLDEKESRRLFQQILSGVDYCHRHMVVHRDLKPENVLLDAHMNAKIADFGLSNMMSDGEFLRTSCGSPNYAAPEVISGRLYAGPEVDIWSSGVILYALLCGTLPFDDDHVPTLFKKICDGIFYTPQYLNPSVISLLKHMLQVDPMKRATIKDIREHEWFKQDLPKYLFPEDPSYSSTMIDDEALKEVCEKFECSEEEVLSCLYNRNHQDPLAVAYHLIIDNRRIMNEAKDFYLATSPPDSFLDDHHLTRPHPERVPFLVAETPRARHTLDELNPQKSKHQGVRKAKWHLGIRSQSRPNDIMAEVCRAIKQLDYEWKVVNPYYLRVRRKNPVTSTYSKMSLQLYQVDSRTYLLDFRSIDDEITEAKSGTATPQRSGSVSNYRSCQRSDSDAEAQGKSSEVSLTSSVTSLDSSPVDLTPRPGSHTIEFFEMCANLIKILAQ
T3 sequence (Q9Y478 whole entry partner): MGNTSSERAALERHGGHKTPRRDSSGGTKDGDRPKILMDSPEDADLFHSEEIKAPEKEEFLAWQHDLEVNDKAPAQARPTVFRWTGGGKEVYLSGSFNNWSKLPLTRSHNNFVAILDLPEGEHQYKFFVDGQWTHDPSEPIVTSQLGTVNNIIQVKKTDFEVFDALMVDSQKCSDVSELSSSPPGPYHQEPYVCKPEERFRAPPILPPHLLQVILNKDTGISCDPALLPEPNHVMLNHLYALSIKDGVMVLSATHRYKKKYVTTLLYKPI
T3 sequence (P54619 whole entry partner): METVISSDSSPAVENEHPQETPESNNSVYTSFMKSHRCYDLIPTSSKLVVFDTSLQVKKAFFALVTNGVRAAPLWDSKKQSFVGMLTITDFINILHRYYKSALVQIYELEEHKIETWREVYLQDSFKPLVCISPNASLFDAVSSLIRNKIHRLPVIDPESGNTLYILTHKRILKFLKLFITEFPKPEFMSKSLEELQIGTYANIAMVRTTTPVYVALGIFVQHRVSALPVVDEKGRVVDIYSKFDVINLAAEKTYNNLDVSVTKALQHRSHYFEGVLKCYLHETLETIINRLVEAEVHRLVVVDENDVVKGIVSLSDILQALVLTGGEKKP
T5 sequence (P11362 22-822): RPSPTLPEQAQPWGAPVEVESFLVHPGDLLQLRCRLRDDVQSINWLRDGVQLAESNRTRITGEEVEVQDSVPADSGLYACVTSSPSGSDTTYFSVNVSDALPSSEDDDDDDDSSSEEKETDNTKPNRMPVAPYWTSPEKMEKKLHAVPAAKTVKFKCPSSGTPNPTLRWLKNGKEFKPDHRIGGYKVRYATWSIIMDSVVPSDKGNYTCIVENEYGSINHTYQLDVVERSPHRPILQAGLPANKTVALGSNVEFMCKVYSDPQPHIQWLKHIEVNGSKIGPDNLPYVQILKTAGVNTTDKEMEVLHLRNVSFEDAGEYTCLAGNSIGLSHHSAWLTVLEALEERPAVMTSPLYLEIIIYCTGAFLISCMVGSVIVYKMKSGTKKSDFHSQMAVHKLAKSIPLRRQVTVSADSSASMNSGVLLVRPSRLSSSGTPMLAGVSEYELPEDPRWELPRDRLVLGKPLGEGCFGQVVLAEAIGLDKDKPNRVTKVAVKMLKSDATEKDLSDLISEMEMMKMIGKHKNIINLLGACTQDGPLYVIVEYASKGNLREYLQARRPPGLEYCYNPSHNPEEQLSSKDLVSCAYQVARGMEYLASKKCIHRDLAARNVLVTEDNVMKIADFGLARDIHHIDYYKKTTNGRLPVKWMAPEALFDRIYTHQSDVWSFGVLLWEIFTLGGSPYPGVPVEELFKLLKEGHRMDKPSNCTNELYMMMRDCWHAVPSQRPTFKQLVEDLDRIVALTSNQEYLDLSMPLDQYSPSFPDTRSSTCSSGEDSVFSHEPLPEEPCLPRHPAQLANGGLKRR

Consider `COc1ccc2c(c1OC)c(=O)n1c3ccc(O)cc3c3ccnc2c31` [MW01, 5-Hydroxy-10,11-dimethoxy-9H-benzo[c]indolo[3,2,1-ij][1,5]naphthyridin-9-one], for which the inhibition (usually the relative decrease from the control value, in per cent) at 1 µM in [1] was determined as 53%; in experiment [2] it was 13%; in experiment [3], 4%; in [4] it was 8%; in experiment [5], 6%; in experiment [6], 5%. In addition, the inhibition at 1 µM in experiment [7] was determined as 10%; in experiment [8], 19%; in experiment [9], 9%; in [10] it was 1%; in experiment [11], 5%. Also, the inhibition at 10 µM in experiment [1] is 68%; in [2], 22%; in experiment [3], 14%; in [4], 18%; in experiment [5] it was 5%; in experiment [6] it was 17%. The inhibition at 10 µM in experiment [7] was 15%; in [8] it was 44%; in experiment [9], 15%; in experiment [10], -8%; in experiment [11], 14%.

As for `COc1ccc2cc3c(N)nn(C(=O)c4cccc(N(C)C)c4)c3nc2c1` [MW05, (3-Amino-7-methoxypyrazolo[3,4-b]quinolin-1-yl)-[3-(dimethylamino)phenyl]methanone], the inhibition at 1 µM was 2% in experiment [1]; 10% in experiment [2]; 6% in [3]; 7% in experiment [4]; -1% in [5]; 2% in experiment [6]. Further, the inhibition at 1 µM in [7] was 26%; in experiment [8], 7%; in experiment [9], -3%; in [10], 2%; in [11], 4%. Besides, the inhibition at 10 µM was 12% in [1]; 9% in experiment [2]; -3% in experiment [3]; 7% in experiment [4]; -7% in experiment [5]; 1% in experiment [6]. Besides, the inhibition at 10 µM in experiment [7] was 15%; in experiment [8] it was -9%; in experiment [9] it was -10%; in experiment [10], 0%; in experiment [11], -5%.
